Literature values in US10434213B2, “Controlled delivery system” (Wake Forest University Health Sciences, priority 2010, dated 2019).
Converted amounts (≈) assume the structure as drawn.

What was measured:
[1] = system: colon cancer and melanoma cancers; conditions: combined with interferon, in vivo
[2] = system: tumor cells; conditions: in vitro
[3] = system: bone marrow; conditions: White and Olden 1991
[4] = system: IL-1, IL-2, TNF, GM-CSF and interferons; conditions: Newton 1989; Olden 1991
[5] = system: S. aureus 29213; conditions: reported value

SMILES	Anti-tumor activity [1]	B- and T-cell immunity, natural killer T-cell and macrophage-induced destruction of tumor cells [2]	Bone marrow proliferation [3]	Production of multiple cytokines [4]	Minimum inhibitory concentration (MIC) [5] [µg/mL]
O[C@H]1[C@H]2[C@H](O)CCCN2C[C@H]1O [Swainsonine]	direct anti-tumor activity	induces	capacity to stimulate bone marrow proliferation	stimulates	–
O=C(O)c1cn(C2CC2)c2cc(N3CCNCC3)c(F)cc2c1=O [ciprofloxacin]	–	–	–	–	0.25 (≈ 0.754 µM)
